Test results taken from patent publication US10858407B2 (priority 2014, dated 2020).

Test system: potassium ion channel current of the DRG neurons
Assay type: cell-based, SD rats
Settings: 5 mM

`Nc1ccncc1` [4AP, 4-aminopyridine] was tested, and the Current inhibition rate was 0.338 and the “Current recorded after loading” value was 0.9766 nA.
